Among the data in patent publication US20250353820A1, “ANTIVIRAL PYRAZOLOPYRIDINONE COMPOUNDS” (Novartis AG, priority 2019, published 2025) are IC50 and EC50 values, retold here.

For orientation: IC50 means the concentration needed to halve the response being measured. Broadly, the EC50 is the midpoint of the concentration-response curve.

For one assay, the target named is human HSV DNA polymerase UL30 (Human herpesvirus 1 (strain 17) (HHV-1) (Human herpes simplex virus 1), UniProt P04293). The experiment in a line: biochemical. The note with it: 625 pM HSV polymerase, 20 minutes at room temperature; read-out: HSV-polymerase Biochemical IC50.
Consider `CCC(=O)Cn1nc(C(=O)NCc2ccc(C#N)cc2)c2c1C(=O)N(CC1(S(=O)(=O)C3CC3)CC1)CC2` [Example 227, N-(4-cyanobenzyl)-6-((1-(cyclopropylsulfonyl)cyclopropyl)methyl)-7-oxo-1-(2-oxobutyl)-4,5,6,7-tetrahydro-1H-pyrazolo[3,4-c]pyridine-3-carboxamide], for which the IC50 is 31 nM. On the same count and under the same terms, for `N#Cc1ccc(CNC(=O)c2nn(CC3(O)CC3)c3c2CCN(CC2(S(=O)(=O)C4CC4)CC2)C3=O)cc1` [Example 228, N-(4-Cyanobenzyl)-6-((1-(cyclopropylsulfonyl)cyclopropyl)methyl)-1-((1-hydroxycyclopropyl)methyl)-7-oxo-4,5,6,7-tetrahydro-1H-pyrazolo[3,4-c]pyridine-3-carboxamide] the value was 56 nM. The same measure, in the same setting: for `CC(C)(O)Cn1nc(C(=O)NCc2ccc(Cl)cc2)c2c1C(=O)N(CC1(S(=O)(=O)C3CC3)CC1)CC2` [Example 229, N-(4-Chlorobenzyl)-6-((1-(cyclopropylsulfonyl)cyclopropyl)methyl)-1-(2-hydroxy-2-methylpropyl)-7-oxo-4,5,6,7-tetrahydro-1H-pyrazolo[3,4-c]pyridine-3-carboxamide] the value was 31 nM; for `CC(C)(O)Cn1nc(C(=O)NCc2ccc(C#N)cc2)c2c1C(=O)N(CC1(S(=O)(=O)C3CC3)CC1)CC2` [Example 230], 34 nM. `CC(C)(O)Cn1nc(C(=O)NCc2ccc(Cl)cc2)c2c1C(=O)N(CC1(S(C)(=O)=O)CC1)CC2` [Example 231]: the IC50 was 278 nM.

As to `CC(C)(O)Cn1nc(C(=O)NCc2ccc(C#N)cc2)c2c1C(=O)N(CC1(S(C)(=O)=O)CC1)CC2` [Example 232], the IC50 was determined as 339 nM. On the same count and under the same terms, for `CCS(=O)(=O)C1(CN2CCc3c(C(=O)NCc4ccc(C#N)cc4)nn(CC(C)(C)O)c3C2=O)CC1` [Example 233] the value was 150 nM. Regarding `CC(C)(O)Cn1nc(C(=O)NCc2ccc(C#N)cc2)c2c1C(=O)N(CC1(S(=O)(=O)C3(CO)CC3)CC1)CC2` [Example 234], the IC50 amounted to 19 nM. Regarding `CC(C)(O)Cn1nc(C(=O)NCc2ccc(C#N)cc2)c2c1C(=O)N(CC1(S(=O)(=O)C(C)(C)CO)CC1)CC2` [Example 235], the IC50 amounted to 16 nM. Same read-out and setting: for `N#Cc1ccc(CNC(=O)c2nn(CCCO)c3c2CCN(CC2(S(=O)(=O)C4CC4)CC2)C3=O)cc1` [Example 236, N-(4-Cyanobenzyl)-6-((1-(cyclopropylsulfonyl)cyclopropyl)methyl)-1-(3-hydroxypropyl)-7-oxo-4,5,6,7-tetrahydro-1H-pyrazolo[3,4-c]pyridine-3-carboxamide] the value was 91 nM; for `CC1(S(=O)(=O)C2(CN3CCc4c(C(=O)NCc5ccc(C#N)cc5)nn(CCCO)c4C3=O)CC2)CC1` [Example 237, N-(4-Cyanobenzyl)-1-(3-hydroxypropyl)-6-((1-((1-methylcyclopropyl)sulfonyl)cyclopropyl)methyl)-7-oxo-4,5,6,7-tetrahydro-1H-pyrazolo[3,4-c]pyridine-3-carboxamide], 41 nM; for `CC(C)(CO)S(=O)(=O)C1(CN2CCc3c(C(=O)NCc4ccc(C#N)cc4)nn(CCOCCBr)c3C2=O)CC1` [Example 238, 1-(2-(2-Bromoethoxy)ethyl)-N-(4-cyanobenzyl)-6-((1-((1-hydroxy-2-methylpropan-2-yl)sulfonyl)cyclopropyl)methyl)-7-oxo-4,5,6,7-tetrahydro-1H-pyrazolo[3,4-c]pyridine-3-carboxamide], 16 nM.

A further assay has as its system Luciferase-encoding HCMV (AD169 strain). As to the kind of experiment: microbe, parasite or virus in culture. Format: cell-based. Conditions: read-out: CMV-Luc Cellular EC50; NN-NHDF cells, MOI of 1, 72 hrs.
For `CC1Cc2c(C(=O)NCc3ccc(C#N)cc3)nn(C)c2C(=O)N1CC1(S(C)(=O)=O)CC1` (single isomer, unassigned) [Example 41, (R)- or (S)—N-(4-cyanobenzyl)-1,5-dimethyl-6-((1-(methylsulfonyl)cyclopropyl)methyl)-7-oxo-4,5,6,7-tetrahydro-1H-pyrazolo[3,4-c]pyridine-3-carboxamide], the EC50 was > 10000 nM. On the same count and under the same terms, the same measure for `CC1Cc2c(C(=O)NCc3ccc(C#N)cc3)nn(C)c2C(=O)N1CC1(S(C)(=O)=O)CC1` (single isomer, unassigned) [Example 42, (R)- or (S)—N-(4-cyanobenzyl)-1,5-dimethyl-6-((1-(methylsulfonyl)cyclopropyl)methyl)-7-oxo-4,5,6,7-tetrahydro-1H-pyrazolo[3,4-c]pyridine-3-carboxamide]: 1180 nM; for `Cn1nc(C(=O)NCc2ccc(C#N)cc2)c2c1C(=O)N(CC1(S(=O)(=O)C(C)(C)COC(F)CO)CC1)CC2` (single isomer, unassigned) [Example 81, (R)- or (S)—N-(4-cyanobenzyl)-6-((1-((1-(1-fluoro-2-hydroxyethoxy)-2-methylpropan-2-yl)sulfonyl)cyclopropyl)methyl)-1-methyl-7-oxo-4,5,6,7-tetrahydro-1H-pyrazolo[3,4-c]pyridine-3-carboxamide]: 42 nM; for `Cn1nc(C(=O)NCc2ccc(C#N)cc2)c2c1C(=O)N(CC1(S(=O)(=O)C(C)(C)COC(F)CN)CC1)CC2` (single isomer, unassigned) [Example 82, (R)- or (S)-6-((1-((1-(2-amino-1-fluoroethoxy)-2-methylpropan-2-yl)sulfonyl)cyclopropyl)methyl)-N-(4-cyanobenzyl)-1-methyl-7-oxo-4,5,6,7-tetrahydro-1H-pyrazolo[3,4-c]pyridine-3-carboxamide]: 29 nM. The same measure, in the same setting: the same measure for `Cn1nc(C(=O)NCc2ccc(C#N)cc2)c2c1C(=O)N(CC1(S(=O)(=O)C(C)(C)COC(F)CN)CC1)CC2` (single isomer, unassigned) [Example 83, (R)- or (S)-6-((1-((1-(2-amino-1-fluoroethoxy)-2-methylpropan-2-yl)sulfonyl)cyclopropyl)methyl)-N-(4-cyanobenzyl)-1-methyl-7-oxo-4,5,6,7-tetrahydro-1H-pyrazolo[3,4-c]pyridine-3-carboxamide]: 133 nM.

For `CC(O)COCC(C)(C)S(=O)(=O)C1(CN2CCc3c(C(=O)NCc4ccc(C#N)cc4)nn(C)c3C2=O)CC1` (single isomer, unassigned) [Example 91, (R)- or (S)—N-(4-Cyanobenzyl)-6-((1-((1-(2-hydroxypropoxy)-2-methylpropan-2-yl)sulfonyl)cyclopropyl)methyl)-1-methyl-7-oxo-4,5,6,7-tetrahydro-1H-pyrazolo[3,4-c]pyridine-3-carboxamide], the EC50 was determined as 76 nM. Still for that read-out and setting: for `CC1=NOC(C(C)(C)S(=O)(=O)C2(CN3CCc4c(C(=O)NCc5ccc(C#N)cc5)nn(C)c4C3=O)CC2)C1` (single isomer, unassigned) [Example 111, (R)- or (S)—N-(4-Cyanobenzyl)-1-methyl-6-((1-((2-(3-methyl-4,5-dihydroisoxazol-5-yl)propan-2-yl)sulfonyl)cyclopropyl)methyl)-7-oxo-4,5,6,7-tetrahydro-1H-pyrazolo[3,4-c]pyridine-3-carboxamide] the value was 159 nM; for `CC1=NOC(C(C)(C)S(=O)(=O)C2(CN3CCc4c(C(=O)NCc5ccc(C#N)cc5)nn(C)c4C3=O)CC2)C1` (single isomer, unassigned) [Example 112, (R)- or (S)—N-(4-Cyanobenzyl)-1-methyl-6-((1-((2-(3-methyl-4,5-dihydroisoxazol-5-yl)propan-2-yl)sulfonyl)cyclopropyl)methyl)-7-oxo-4,5,6,7-tetrahydro-1H-pyrazolo[3,4-c]pyridine-3-carboxamide], 64 nM; for `CC(O)CC(C)(C)S(=O)(=O)C1(CN2CCc3c(C(=O)NCc4ccc(C#N)cc4)nn(C)c3C2=O)CC1` (single isomer, unassigned) [Example 116, (R)- or (S)—N-(4-Cyanobenzyl)-6-((1-((4-hydroxy-2-methylpentan-2-yl)sulfonyl)cyclopropyl)methyl)-1-methyl-7-oxo-4,5,6,7-tetrahydro-1H-pyrazolo[3,4-c]pyridine-3-carboxamide], 39 nM. The same measure, in the same setting: the same measure for `COCC(C)(CO)S(=O)(=O)C1(CN2CCc3c(C(=O)NCc4ccc(C#N)cc4)nn(C)c3C2=O)CC1` (single isomer, unassigned) [Example 182, (R)- or (S)—N-(4-Cyanobenzyl)-6-((1-((1-hydroxy-3-methoxy-2-methylpropan-2-yl)sulfonyl)cyclopropyl)methyl)-1-methyl-7-oxo-4,5,6,7-tetrahydro-1H-pyrazolo[3,4-c]pyridine-3-carboxamide]: 50 nM. On the same count and under the same terms, the same measure for `Cn1nc(C(=O)NCc2ccc(C#N)cc2)c2c1C(=O)N(CC1(S(=O)(=O)C(C)(C)C(O)C(C)(C)N)CC1)CC2` (single isomer, unassigned) [Example 211, (R)- or (S)-6-((1-((4-Amino-3-hydroxy-2,4-dimethylpentan-2-yl)sulfonyl)cyclopropyl)methyl)-N-(4-cyanobenzyl)-1-methyl-7-oxo-4,5,6,7-tetrahydro-1H-pyrazolo[3,4-c]pyridine-3-carboxamide]: 28 nM; for `Cn1nc(C(=O)NCc2ccc(C#N)cc2)c2c1C(=O)N(CC1(S(=O)(=O)C(C)(C)C(O)C(C)(C)N)CC1)CC2` (single isomer, unassigned) [Example 212, (R)- or (S)-6-((1-((4-Amino-3-hydroxy-2,4-dimethylpentan-2-yl)sulfonyl)cyclopropyl)methyl)-N-(4-cyanobenzyl)-1-methyl-7-oxo-4,5,6,7-tetrahydro-1H-pyrazolo[3,4-c]pyridine-3-carboxamide]: 7 nM.

`CC(O)Cn1nc(C(=O)NCc2ccc(C#N)cc2)c2c1C(=O)N(CC1(S(=O)(=O)C3CC3)CC1)CC2` (single isomer, unassigned) [Example 226, (R)- or (S)—N-(4-Cyanobenzyl)-6-((1-(cyclopropylsulfonyl)cyclopropyl)methyl)-1-(2-hydroxypropyl)-7-oxo-4,5,6,7-tetrahydro-1H-pyrazolo[3,4-c]pyridine-3-carboxamide]: the 50% effective concentration (EC50) was 44 nM.
